Laboratory results from ChEMBL document CHEMBL4229547, “Design, synthesis and biological mechanisms research on 1,2,3-triazole derivatives of Jiyuan Oridonin A” (Bioorg Med Chem, 2018).

Assays:
Assay type in all cases: functional, cell-based
PC-3 = test: Antiproliferative activity against human PC3 cells after 48 hrs by MTT assay; conditions: PC-3, 48 h
MGC-803 = test: Antiproliferative activity against human MGC803 cells after 48 hrs by MTT assay; conditions: MGC-803, 48 h
EC9706 = test: Antiproliferative activity against human EC9706 cells after 48 hrs by MTT assay; conditions: EC9706, 48 h
SMMC-7721 = test: Antiproliferative activity against human SMMC7721 cells after 48 hrs by MTT assay; conditions: SMMC-7721, 48 h
MCF7 = test: Antiproliferative activity against human MCF7 cells after 48 hrs by MTT assay; conditions: MCF7, 48 h
ECa-109 cell line = test: Antiproliferative activity against human ECA109 cells after 48 hrs by MTT assay; conditions: ECa-109, 48 h
HGC-27 = test: Antiproliferative activity against human HGC27 cells after 48 hrs by MTT assay; conditions: HGC-27, 48 h

Compound | IC50 (PC-3) [µM] | IC50 (MGC-803) [µM] | IC50 (SMMC-7721) [µM] | IC50 (MCF7) [µM] | IC50 (EC9706) [µM] | IC50 (ECa-109 cell line) [µM] | IC50 (HGC-27) [µM]
C=C1C(=O)[C@]23[C@H](O)[C@H]1C[C@H](O)[C@H]2[C@]12CCCC(C)(C)[C@H]1C[C@H]3O[C@@H]2OCCn1cc(C2CC2)nn1 | 3.79 | 4.58 | 9.66 | 11 | 11.4 | 4.3 | 
C=C1C(=O)[C@]23[C@H](O)[C@H]1C[C@H](O)[C@H]2[C@]12CCCC(C)(C)[C@H]1C[C@H]3O[C@@H]2OCCc1cn(Cc2cc(OC)c(OC)c(OC)c2)nn1 |  |  | 9.03 | 8.79 | 9.5 | 4.51 | 
C=C1C(=O)[C@]23[C@H](O)[C@H]1CC[C@H]2[C@@]12CO[C@]3(O)[C@@H](O)[C@@H]1C(C)(C)CC[C@@H]2O [ORIDONIN] | 27.6 | 33.1 | 54 | 74.2 | 38.4 | 31.8 | 32
C#CCO[C@H]1O[C@@H]2C[C@@H]3C(C)(C)CCC[C@]13[C@@H]1[C@@H](O)C[C@H]3C(=C)C(=O)[C@@]21[C@@H]3O | 3.92 | 3.77 | 15.3 | 14.6 | 7.87 | 10.8 | 
C=C1C(=O)[C@]23[C@H](O)[C@H]1C[C@H](O)[C@H]2[C@]12CCCC(C)(C)[C@H]1C[C@H]3O[C@H]2O | 15 | 14.7 | 20.2 | 22.9 | 22.5 | 20.7 | 
C=C1C(=O)[C@]23[C@H](O)[C@H]1C[C@H](O)[C@H]2[C@]12CCCC(C)(C)[C@H]1C[C@H]3O[C@@H]2OCCn1cc(CCCC)nn1 |  |  | 11 | 13.4 | 8.29 | 4.45 | 
C=C1C(=O)[C@]23[C@H](O)[C@H]1C[C@H](O)[C@H]2[C@]12CCCC(C)(C)[C@H]1C[C@H]3OC2OCCN=[N+]=[N-] (single isomer, unassigned) | 12.3 | 11.9 | 10 | 1.6 | 8.71 | 6.08 | 

Stronger by IC50 (SMMC-7721), values ahead:

IC50 (PC-3) [µM] | IC50 (MGC-803) [µM] | IC50 (SMMC-7721) [µM] | IC50 (MCF7) [µM] | Compound | IC50 (EC9706) [µM] | IC50 (ECa-109 cell line) [µM] | IC50 (HGC-27) [µM]
11.2 | 9.62 | 6.07 | 8.95 | C=C1C(=O)[C@]23[C@H](O)[C@H]1C[C@H](O)[C@H]2[C@]12CCCC(C)(C)[C@H]1C[C@H]3O[C@@H]2OCCn1cc(-c2ccccc2)nn1 | 5.32 | 4.26 | 
 |  | 5.88 | 6.62 | C=C1C(=O)[C@]23[C@H](O)[C@H]1C[C@H](O)[C@H]2[C@]12CCCC(C)(C)[C@H]1C[C@H]3O[C@@H]2OCCc1cn(Cc2ccc(F)cc2)nn1 | 4.5 | 3.68 | 
 |  | 5.79 | 9.45 | C=C1C(=O)[C@]23[C@H](O)[C@H]1C[C@H](O)[C@H]2[C@]12CCCC(C)(C)[C@H]1C[C@H]3O[C@@H]2OCCc1cn(Cc2ccccc2)nn1 | 7.54 | 3.51 | 
4.9 | 3.89 | 5.68 | 7.86 | C=C1C(=O)[C@]23[C@H](O)[C@H]1C[C@H](O)[C@H]2[C@]12CCCC(C)(C)[C@H]1C[C@H]3O[C@@H]2OCCc1cn(Cc2ccc(C)cc2)nn1 | 6.1 | 2.12 | 
4.95 | 4.79 | 4.81 | 7.81 | C=C1C(=O)[C@]23[C@H](O)[C@H]1C[C@H](O)[C@H]2[C@]12CCCC(C)(C)[C@H]1C[C@H]3O[C@@H]2OCCc1cn(Cc2ccc(OC)cc2)nn1 | 4.67 | 2.57 | 
 |  | 3.8 | 6.45 | C=C1C(=O)[C@]23[C@H](O)[C@H]1C[C@H](O)[C@H]2[C@]12CCCC(C)(C)[C@H]1C[C@H]3O[C@@H]2OCCc1cn(Cc2ccc([N+](=O)[O-])cc2)nn1 | 7.78 | 4.13 | 
 |  | 3.76 | 6.85 | C=C1C(=O)[C@]23[C@H](O)[C@H]1C[C@H](O)[C@H]2[C@]12CCCC(C)(C)[C@H]1C[C@H]3O[C@@H]2OCCc1cn(Cc2ccc(Cl)c(Cl)c2)nn1 | 4.21 | 2.58 | 
